From patent US8343893B2, “Substituted enaminocarbonyl compounds” (Bayer Cropscience AG, priority 2009, dated 2013) come the findings set out here.

This assay relates to green peach aphid (Myzus persicae). As to the kind of experiment: Myzus test (MYZUPE spray treatment). Type of assay: in vivo. The following applies: after 5 days; application rate 500 g/ha; spray on Chinese cabbage discs; 100% = all aphids killed. The protocol:
Myzus Test (MYZUPE Spray Treatment) Solvent: 78 parts by weight of acetone and 1.5 parts by weight of dimethylformamide Emulsifier: 0.5 part by weight of alkylaryl polyglycol ether To prepare an active ingredient formulation, 1 part by weight of active ingredient is mixed with the specified amounts of solvent and emulsifier, and the concentrate is diluted to the desired concentration with emulsifier-containing water. Discs of Chinese cabbage (Brassica pekinensis) infested with all stages of the green peach aphid (Myzus persicae) are sprayed with an active ingredient formulation of the desired concentration. After the desired time, the efficacy in % is determined. 100% means that all aphids have been killed; 0% means that no aphids have been killed.

Molecules are shown by their SMILES.

In the case of `CC(=O)OCC(=CC(=O)OC(C)C)N(C)Cc1ccc(Cl)nc1` [Compound 1], the efficacy in % was 80%.
